Results published in patent US20120035156A1, “COMBINATION OF GLYT1 COMPOUND WITH ANTIPSYCHOTICS” (priority 2010, published 2012).
Values joined by “and” are separate entries in the source; they are usually repeats but may differ in a detail not shown here. Equal values may be shown once. Read-outs that look alike come from different tables or passages of the source.

Key:
schizophrenic patients = conditions: added to conventional therapy; cited from earlier work
[1] = test system: L-687,414-induced hyperlocomotion; assay: Reversal of L-687,414-induced hyperlocomotion in mice; assay type: in vivo; conditions: for ED50: Mus musculus, po, 1 h, read-out: ED50 of compound alone, L-687,414-induced hyperlocomotion; for reversal of hyperlocomotion induced by L-687,414 (in words): single agents, mice, L-687,414 50 mg/kg
Procedure: RG1678, [4-(3-Fluoro-5-trifluoromethyl-pyridin-2-yl)-piperazin-1-yl]-[5-methanesulfonyl-2-((S)-2,2,2 trifluoro-1-methyl-ethoxy)-phenyl]-methanone (WO05/014563) and L-687,414, ((3R,4R)-3-amino-1-hydroxy-4-methylpyrrolidin-2-one (Tetrahedron Letters, Vol. 49, issue 42, 2008, 6079-6080) and olanzapine were synthesized according to known methods by the Medicinal Chemistry Department of F. Hoffmann-La Roche, and risperidone was purchased from Sigma. All drugs were dissolved in H2O/0.3% Tween 80 and administered orally in a volume of 10 ml/kg body weight.
Male NMRI mice (20-30 g) supplied from Iffa Credo, Lyon, France, were housed in a vivarium at controlled temperature (20-22° C.) and a 12 hr light/dark cycle (lights on 6:00 a.m. Animals were allowed ad libitum access to food and water. The experimental procedures used in the present study received prior approval from the City of Basel Cantonal Animal Protection Committee based on adherence to federal and local regulations. Behavioral experiments were conducted during the hours of 8:00 a.m. and 2:00 p.m.
A computerized Digiscan 16 Animal Activity Monitoring System (Omnitech Electronics, Columbus, Ohio) was used to quantify locomotor activity. Data were obtained simultaneously from eight Digiscan activity chambers placed in a soundproof room with a 12 hr light/dark cycle. Experiments were performed during the light phase between 06:30 a.m. and 5:00 p.m. Each activity monitoring chamber consisted of a Plexiglas box (41×41×28 cm; W×L×H) with sawdust bedding on the floor surrounded by invisible horizontal and vertical infrared sensor beams. The chambers were divided by a Plexiglas cross providing each mouse with 20×20 cm of moving space. Two animals per box were monitored simultaneously. Chambers were connected to a Digiscan Analyzer linked to a computer that constantly collected the beam status information. The activity detector operates by counting the number of times the beams change from uninterrupted to interrupted status or vice-versa. Records of photocell beam interruptions for individual animals were taken every five minutes over the duration of the experimental session. Mice were first treated with RG1678 at different doses or at a fixed low dose administered p.o. and, 30 minutes later, treated with an antipsychotic at different doses or at a fixed low dose administered p.o. Fifteen minutes after the antipsychotic treatment mice received a s.c. injection of 50 mg/kg of L-687,414. Mice were then transferred from their home cages to the recording chambers for a 15-min habituation phase allowing free exploration of the new environment. Horizontal activity was then recorded for a 60-min time period. The horizontal activity value for each group of animals at a given dose of RG1678 alone or in combination with an antipsychotic (y1) was expressed as % of L-687,414-induced hyperlocomotion and calculated according to the equation (((y1−vehicle horizontal activity)/(L-687,414 horizontal activity−vehicle horizontal activity))×100). For dose-response experiments, the horizontal activity value for each group of animal at a given dose of GlyT1 inhibitor or antipsychotics (y1) was expressed as a percent of L-687,414-induced hyperlocomotion and calculated according to the equation (((y1−vehicle horizontal activity)/(L-687,414 horizontal activity−vehicle horizontal activity))×100). ID50 values, defined as doses of each compound producing 50% inhibition of L-687,414-induced hyperlocomotion, were calculated by linear regression analysis of the dose-response data using an Excel-based computer curve-fitting program.

[2] = test system: L-687,414-induced hyperlocomotion; conditions: mice; D. Alberati et al 2010; cited from earlier work

N[C@H](CO)C(=O)O [D-serine]
effect on positive, negative and cognitive symptoms (schizophrenic patients): improved positive, negative and cognitive symptoms

C[C@H](Oc1ccc(S(C)(=O)=O)cc1C(=O)N1CCN(c2ncc(C(F)(F)F)cc2F)CC1)C(F)(F)F [RG1678]
ED50 ([1]; male NMRI mice, p.o., L-687,414 50 mg/kg s.c., horizontal activity recorded 1 hour): 0.76 mg/kg
reversal of hyperlocomotion induced by RG1678 alone ([1]; RG1678 0.6 mg/kg p.o., male NMRI mice, L-687,414 50 mg/kg s.c.): 19% and 21%
reversal of hyperlocomotion induced by L-687,414 (in words) [1]: dose-dependently reversed hyperlocomotion

O=C1CCc2ccc(OCCCCN3CCN(c4cccc(Cl)c4Cl)CC3)cc2N1 [aripiprazole, 7-{4-[4-(2,3-dichlorophenyl)piperazin-1-yl]butoxy}-3,4-dihydroquinolin-2(1H)-one]
prevention of hyperlocomotion induced by L-687,414 (assay validation) [2]: effective in preventing this behavioral effect in a dose-dependant manner

NCC(=O)O [glycine]
effect on positive, negative and cognitive symptoms (schizophrenic patients): improved positive, negative and cognitive symptoms
prevention of hyperlocomotion induced by L-687,414 (assay validation) [2]: dose-dependently blocked hyperlocomotion

O=C(CCCN1CCC(O)(c2ccc(Cl)cc2)CC1)c1ccc(F)cc1 [haloperidol]
prevention of hyperlocomotion induced by L-687,414 (assay validation) [2]: effective in preventing this behavioral effect in a dose-dependant manner

Cc1cc2c(s1)Nc1ccccc1N=C2N1CCN(C)CC1 [olanzapine, 2-methyl-4-(4-methyl-1-piperazinyl)-10H-thieno[2,3-b][1.5]benzodiazepine]
ED50 [1]: 0.06 mg/kg
reversal of hyperlocomotion induced by olanzapine alone ([1]; olanzapine 0.05 mg/kg p.o., male NMRI mice, L-687,414 50 mg/kg s.c.): 34%

Cc1nc2n(c(=O)c1CCN1CCC(c3noc4cc(F)ccc34)CC1)CCCC2 [risperidone, 3-[2-[4-(6-fluoro-1,2-benzisoxazol-3-yl)piperidino]ethyl]-2.methyl-6,7,8,9-tetrahydro-4H-pyrido-[1.2-a]pyrimidin-4-one]
prevention of hyperlocomotion induced by L-687,414 (assay validation) [2]: effective in preventing this behavioral effect in a dose-dependant manner
ED50 [1]: 0.023 mg/kg
reversal of hyperlocomotion induced by risperidone alone ([1]; risperidone 0.005 mg/kg p.o., male NMRI mice, L-687,414 50 mg/kg s.c.): 15%
reversal of hyperlocomotion induced by L-687,414 (in words) [1]: dose-dependently reversed hyperlocomotion

CNCC(=O)O [sarcosine]
effect on positive, negative and cognitive symptoms (schizophrenic patients): improved positive, negative and cognitive symptoms
